Measurements: US20050164370A1 (priority 2003, published 2005)

How the values were obtained:
cytokinin receptor AHK2 = molecular target: T1, cytokinin receptor AHK2 (Arabidopsis thaliana, UniProt Q9C5U2); assay: Agonist-activity to cytokinin receptor, optical density of TM182-AHK2 liquid culture; format: cell-based, yeast; parameters: expressed in transfected cells; host or cells: yeast strain TM182 carrying plasmid p415CYC-AHK2 (pHM-1 backbone, CYC1 promoter); settings: TM182-AHK2, examinee substance 100 μM, DOLU+Glu, 30° C. for 24 hours
T1 sequence (Q9C5U2 1-1176): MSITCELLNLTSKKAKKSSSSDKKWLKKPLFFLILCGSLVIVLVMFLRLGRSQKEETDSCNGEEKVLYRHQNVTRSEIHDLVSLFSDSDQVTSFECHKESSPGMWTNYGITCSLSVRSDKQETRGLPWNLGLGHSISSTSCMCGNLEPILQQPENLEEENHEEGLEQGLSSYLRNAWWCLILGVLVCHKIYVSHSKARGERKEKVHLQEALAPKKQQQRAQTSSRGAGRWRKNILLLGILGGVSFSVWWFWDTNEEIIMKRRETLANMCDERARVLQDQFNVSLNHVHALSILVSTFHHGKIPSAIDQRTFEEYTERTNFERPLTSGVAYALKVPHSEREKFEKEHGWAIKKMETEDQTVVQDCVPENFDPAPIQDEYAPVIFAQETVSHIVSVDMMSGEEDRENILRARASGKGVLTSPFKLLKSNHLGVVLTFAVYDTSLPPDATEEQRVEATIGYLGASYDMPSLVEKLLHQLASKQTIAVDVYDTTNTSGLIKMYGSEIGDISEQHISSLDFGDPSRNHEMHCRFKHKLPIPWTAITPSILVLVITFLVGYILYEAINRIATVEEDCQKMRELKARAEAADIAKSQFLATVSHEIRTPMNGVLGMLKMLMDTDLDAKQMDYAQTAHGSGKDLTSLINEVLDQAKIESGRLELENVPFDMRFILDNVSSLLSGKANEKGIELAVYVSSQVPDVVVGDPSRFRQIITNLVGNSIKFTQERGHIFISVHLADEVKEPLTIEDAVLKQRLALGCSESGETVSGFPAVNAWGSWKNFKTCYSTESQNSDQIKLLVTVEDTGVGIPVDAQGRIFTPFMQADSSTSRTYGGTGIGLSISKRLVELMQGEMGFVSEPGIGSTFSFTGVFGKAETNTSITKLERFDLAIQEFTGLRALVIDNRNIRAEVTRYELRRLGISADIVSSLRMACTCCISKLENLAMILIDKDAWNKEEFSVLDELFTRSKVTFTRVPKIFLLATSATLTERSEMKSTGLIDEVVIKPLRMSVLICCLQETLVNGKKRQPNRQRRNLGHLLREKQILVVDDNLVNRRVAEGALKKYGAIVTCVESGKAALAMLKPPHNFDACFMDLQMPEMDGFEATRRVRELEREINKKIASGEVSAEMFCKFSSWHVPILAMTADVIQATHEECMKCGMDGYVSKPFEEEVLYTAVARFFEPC
Description: (§1) The transformed cells TM182-AHK2, TM182-AHK2Δ and TM182-AHK3 produced in the reference example 1 were inoculated in 200 ml of DOLU+Gal culture media and pre-cultured at 30° C. for 36 hours. The pre-cultured solutions were diluted with DOLU+Glu media as to become 0.100 as the optical density (OD600) and further the resultants were diluted with DOLU+Glu media at a dilution rate of 1/200 to obtain diluted pre-cultured solutions.
(§2) An assay plate was prepared by filling respective wells of a 96-well plate with 20 μl of solutions which were prepared by diluting DMSO solution (10 mM) of each examinee substance with DOLU+Glu medium at a dilution rate of 1/100, said solutions containing each examinee substance to be […]. […]
(§3) The diluted pre-cultured solutions were added in 200 μl each into the respective wells of both assay plates and cultured at 30° C. for 24 hours and then the optical density (OD620) of each well was measured by a plate reader. The agonist-activity of the examinee substances to the cytokinin receptor was detected by comparing the optical density measured in the testing sections to which the examinee substances were added with the optical density measured in the blank sections.

cytokinin receptor AHK3 = molecular target: T2, cytokinin receptor AHK3 (Arabidopsis thaliana, UniProt Q9C5U1); assay: Agonist-activity to cytokinin receptor, optical density of TM182-AHK3 liquid culture; format: cell-based, yeast; parameters: expressed in transfected cells; host or cells: yeast strain TM182 carrying plasmid p415CYC-AHK3 (pHM-1 backbone, CYC1 promoter); settings: TM182-AHK3, examinee substance 100 μM, DOLU+Glu, 30° C. for 24 hours
T2 sequence (Q9C5U1 1-1036): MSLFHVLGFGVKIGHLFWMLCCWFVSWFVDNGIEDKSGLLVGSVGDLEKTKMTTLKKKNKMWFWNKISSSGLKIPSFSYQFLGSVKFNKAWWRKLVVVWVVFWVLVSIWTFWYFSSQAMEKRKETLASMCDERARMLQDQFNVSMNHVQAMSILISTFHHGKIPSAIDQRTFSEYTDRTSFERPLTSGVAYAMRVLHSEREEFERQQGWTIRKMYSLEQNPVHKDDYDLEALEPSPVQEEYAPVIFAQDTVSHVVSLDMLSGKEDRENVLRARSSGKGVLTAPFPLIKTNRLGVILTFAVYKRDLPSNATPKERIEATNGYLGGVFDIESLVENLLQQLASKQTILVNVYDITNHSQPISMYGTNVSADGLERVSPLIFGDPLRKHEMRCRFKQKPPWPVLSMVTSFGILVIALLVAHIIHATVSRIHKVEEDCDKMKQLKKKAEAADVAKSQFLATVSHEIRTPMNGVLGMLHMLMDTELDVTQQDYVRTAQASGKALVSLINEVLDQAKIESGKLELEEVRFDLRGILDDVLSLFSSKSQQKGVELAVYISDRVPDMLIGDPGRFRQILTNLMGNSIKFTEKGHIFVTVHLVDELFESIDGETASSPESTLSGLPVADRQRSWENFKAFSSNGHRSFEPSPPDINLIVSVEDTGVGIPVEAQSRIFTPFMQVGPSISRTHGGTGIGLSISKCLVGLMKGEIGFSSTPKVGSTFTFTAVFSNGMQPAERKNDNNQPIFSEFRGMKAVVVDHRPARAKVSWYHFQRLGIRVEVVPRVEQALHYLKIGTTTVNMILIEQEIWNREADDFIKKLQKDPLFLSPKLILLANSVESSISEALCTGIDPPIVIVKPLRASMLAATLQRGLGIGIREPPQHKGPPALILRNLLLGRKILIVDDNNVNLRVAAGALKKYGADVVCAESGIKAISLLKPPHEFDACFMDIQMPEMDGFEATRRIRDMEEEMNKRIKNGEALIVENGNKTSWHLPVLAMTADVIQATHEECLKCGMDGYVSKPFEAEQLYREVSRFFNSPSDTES
Description: as §1, §2, §3

SMILES	optical density (OD620) of the culture solution (cytokinin receptor AHK2)	optical density (OD620) of the culture solution (cytokinin receptor AHK3)
CC1=CC(=O)CC(C)(C)[C@@]1(O)/C=C/C(C)=C\C(=O)O [Compound A, Abscisic acid]	0.01	0.54
c1ccc(CNc2ncnc3nc[nH]c23)cc1 [Compound B, 6-Benzyl aminopurine]	0.45	0.88
